Like-named read-outs stand apart in the source and are kept apart here.
Test system: breast tumor cells MDA-MB-436
Experiment: MDA-MB-436 cell activity test (CellTiter-Glo, 7 days)
Format: cell-based, human
Settings: for IC50: 7 days incubation, read-out: IC50 (nM), MDA-MB-436 cell inhibitory activity; for inhibition at 10 µM: MDA-MB-436, MDA-MB-436 cells, read-out: Max inh. % 10 μM
Description: Breast tumor cells MDA-MB-436 were purchased from ATCC, the culture medium was Leibovitz's L-15+10% FBS, and the cells were cultured in a CO2-free incubator at 37° C. On day 1, the cells in the exponential growth phase were collected, and the cell suspension was adjusted to 4000 cells/135 μL with the culture medium. 135 μL of the cell suspension was added to each well of a 96-well cell culture plate and incubated overnight. On day 2, compounds at different concentrations were added, and the plate was placed in the incubator and incubated for 7 days. After the culture was completed, according to operation instructions for a CellTiter-Glo kit (Promega, G7573), 75 μL of CTG solution, which was already pre-melted and equilibrated to room temperature, was added to each well, and the mixture was uniformly mixed for 2 minutes using a microplate shaker. The plate was placed at room temperature for 10 minutes, and then […] signal values were determined using an Envision2104 plate reader (PerkinElmer). The inhibition rate was calculated using formula (1), where RLUcompound was the readout of the drug treated group, RLUcontrol was the average value of the solvent control group, and RLUblank was the average value of the cell-free well. The IC50 value was calculated using GraphPad Prism software.

[1] = Homo sapiens, MDA-MB-436, 168 h, MDA-MB-436 cells

Structure (SMILES)	IC50 [1]	inhibition at 10 µM (Homo sapiens, 10 μM)	Max inh. % 10 μM (MDA-MB-436 cells, 10 μM)	IC50 (MDA-MB-436 cells)
CCc1cc2ncc(CN3CCN(c4ccc(C(=O)NC5CCN(CC6CCN(Cc7ccc(-n8c(O)nnc8-c8cc(C(C)C)c(O)cc8O)cc7)CC6)CC5)nc4)CC3)cc2[nH]c1=O [Compound 8, N-(1-((1-(4-(3-(2,4-dihydroxy-5-isopropylphenyl)-5-hydroxy-4H-1,2,4-triazol-4-yl)benzyl)piperidin-4-yl)methyl)piperidin-4-yl)-5-(4-((7-ethyl-6-oxo-5,6-dihydro-1,5-naphthyridin-3-yl)methyl)piperazin-1-yl)picolinamide]	15 nM	99.8%		
CCc1cc2ncc(CN3CCN(c4ccc(C(=O)NC5CN(c6ccc7c(c6)C(=O)N(C6CCC(=O)NC6=O)C7=O)C5)nc4)CC3)cc2[nH]c1=O (stereo not drawn) [Compound 11, N-(1-(2-(2,6-dioxopiperidin-3-yl)-1,3-dioxoisoindolin-5-yl)azetidin-3-yl)-5-(4-((7-ethyl-6-oxo-5,6-dihydro-1,5-naphthyridin-3-yl)methyl)piperazin-1-yl)picolinamide]	2 nM	99.8%		
CCc1cc2ncc(CN3CCN(c4ccc(C(=O)NC5CCN(C(=O)CC67CC8C[C@H](C6)C[C@H](C8)C7)CC5)nc4)CC3)cc2[nH]c1=O [Compound 12, N-(1-(2-((3R,5R)-adamantan-1-yl)acetyl)piperidin-4-yl)-5-(4-((7-ethyl-6-oxo-5,6-dihydro-1,5-naphthyridin-3-yl)methyl)piperazin-1-yl)picolinamide]	44 nM	89.6%		
CCc1cc2ncc(CN3CCN(c4ccc(C(=O)NC5CN(C(=O)CC67CC8C[C@H](C6)C[C@H](C8)C7)C5)nc4)CC3)cc2[nH]c1=O [Compound 13, N-(1-(2-((3R,5R)-adamantan-1-yl)acetyl)azetidin-3-yl)-5-(4-((7-ethyl-6-oxo-5,6-dihydro-1,5-naphthyridin-3-yl)methyl)piperazin-1-yl)picolinamide]	5 nM	89.7%		
CCc1cc2ncc(CN3CCN(c4ccc(C(=O)NC5CCN(C6CN(c7cccc8c7C(=O)N(C7CCC(=O)NC7=O)C8=O)C6)CC5)nc4)CC3)cc2[nH]c1=O (stereo not drawn) [Compound 15, N-(1-(1-(2-(2,6-dioxopiperidin-3-yl)-1,3-dioxoisoindolin-4-yl)azetidin-3-yl)piperidin-4-yl)-5-(4-((7-ethyl-6-oxo-5,6-dihydro-1,5-naphthyridin-3-yl)methyl)piperazin-1-yl)picolinamide]	25 nM	87.2%		
CCc1cc2ncc(CN3CCN(c4ccc(C(=O)NC5CN(c6cccc7c6C(=O)N(C6CCC(=O)NC6=O)C7=O)C5)nc4)CC3)cc2[nH]c1=O (stereo not drawn) [Compound 16, N-(1-(2-(2,6-dioxopiperidin-3-yl)-1,3-dioxoisoindolin-4-yl)azetidin-3-yl)-5-(4-((7-ethyl-6-oxo-5,6-dihydro-1,5-naphthyridin-3-yl)methyl)piperazin-1-yl)picolinamide]	15 nM	78.8%		
CCc1cc2ncc(CN3CCN(c4ccc(C(=O)NC5CN(c6cc7c(cc6F)C(=O)N(C6CCC(=O)NC6=O)C7=O)C5)nc4)CC3)cc2[nH]c1=O (stereo not drawn) [Compound 17, N-(1-(2-(2,6-dioxopiperidin-3-yl)-6-fluoro-1,3-dioxoisoindolin-5-yl)azetidin-3-yl)-5-(4-((7-ethyl-6-oxo-5,6-dihydro-1,5-naphthyridin-3-yl)methyl)piperazin-1-yl)picolinamide]	61 nM	99%		
CCc1cc2ncc(CN3CCN(c4ccc(C(=O)NC5CCN(c6cccc7c6C(=O)N(C6CCC(=O)NC6=O)C7=O)CC5)nc4)CC3)cc2[nH]c1=O (stereo not drawn) [Compound 19, N-(1-(2-(2,6-dioxopiperidin-3-yl)-1,3-dioxoisoindolin-4-yl)piperidin-4-yl)-5-(4-((7-ethyl-6-oxo-5,6-dihydro-1,5-naphthyridin-3-yl)methyl)piperazin-1-yl)picolinamide]	21 nM	90.3%		
CCc1cc2ncc(CN3CCN(c4ccc(C(=O)N[C@H]5CCN(c6ccc7c(c6)C(=O)N(C6CCC(=O)NC6=O)C7=O)C5)nc4)CC3)cc2[nH]c1=O (stereo partly drawn) [Compound 21, N-((3S)-1-(2-(2,6-dioxopiperidin-3-yl)-1,3-dioxoisoindolin-5-yl)pyrrolidin-3-yl)-5-(4-((7-ethyl-6-oxo-5,6-dihydro-1,5-naphthyridin-3-yl)methyl)piperazin-1-yl)picolinamide]	25 nM	88.9%		
CCc1cc2ncc(CN3CCN(c4ccc(C(=O)N[C@H]5CC[C@@H](Nc6ccc7c(c6)C(=O)N(C6CCC(=O)NC6=O)C7=O)CC5)nc4)CC3)cc2[nH]c1=O (stereo partly drawn) [Compound 27, N-((1s,4s)-4-((2-(-2,6-dioxopiperidin-3-yl)-1,3-dioxoisoindolin-5-yl)amino)cyclohexyl)-5-(4-((7-ethyl-6-oxo-5,6-dihydro-1,5-naphthyridin-3-yl)methyl)piperazin-1-yl)picolinamide]	15 nM	95.8%		
CCc1cc2ncc(CN3CCN(c4ccc(C(=O)N[C@H]5C[C@@H](Nc6ccc7c(c6)C(=O)N(C6CCC(=O)NC6=O)C7=O)C5)nc4)CC3)cc2[nH]c1=O (stereo partly drawn) [Compound 37, N-((1s,3s)-3-((2-(2,6-dioxopiperidin-3-yl)-1,3-dioxoisoindolin-5-yl)amino)cyclobutyl)-5-(4-((7-ethyl-6-oxo-5,6-dihydro-1,5-naphthyridin-3-yl)methyl)piperazin-1-yl)picolinamide]	23 nM	92.1%		
CCc1cc2ncc(CN3CCN(c4ccc(C(=O)N[C@H]5C[C@H](Nc6ccc7c(c6)C(=O)N(C6CCC(=O)NC6=O)C7=O)C5)nc4)CC3)cc2[nH]c1=O (stereo partly drawn) [Compound 38, N-((1r,3r)-3-((2-(2,6-dioxopiperidin-3-yl)-1,3-dioxoisoindolin-5-yl)amino)cyclobutyl)-5-(4-((7-ethyl-6-oxo-5,6-dihydro-1,5-naphthyridin-3-yl)methyl)piperazin-1-yl)picolinamide]	12 nM	77.1%		
CCc1cc2ncc(CN3CCN(c4ccc(C(=O)N[C@H]5C[C@@H](Nc6cc7c(cc6F)C(=O)N(C6CCC(=O)NC6=O)C7=O)C5)nc4)CC3)cc2[nH]c1=O (stereo partly drawn) [Compound 41, N-((1s,3s)-3-((2-(2,6-dioxopiperidin-3-yl)-6-fluoro-1,3-dioxoisoindolin-5-yl)amino)cyclobutyl)-5-(4-((7-ethyl-6-oxo-5,6-dihydro-1,5-naphthyridin-3-yl)methyl)piperazin-1-yl)picolinamide]	11 nM	85.7%		
CCc1cc2ncc(CN3CCN(c4ccc(C(=O)NC5CC(Nc6ccc7c(c6)C(=O)N([C@@H]6CCC(=O)NC6=O)C7=O)C5)nc4)CC3)cc2[nH]c1=O (stereo partly drawn) [Compound 42, N-((1r, 3r)-3-((2-(2,6-dioxopiperidin-3-yl)-1,3-dioxoisoindolin-5-yl)amino)cyclobutyl)-5-(4-((7-ethyl-6-oxo-5,6-dihydro-1,5-naphthyridin-3-yl)methyl)piperazin-1-yl)picolinamide]			86.3%	17 nM
CCc1cc2ncc(CN3CCN(c4ccc(C(=O)NC5CCN(c6ccc7c(c6)C(=O)N(C6CCC(=O)NC6=O)C7)CC5)nc4)CC3)cc2[nH]c1=O (stereo not drawn) [Compound 48, N-(1-(2-(2,6-dioxopiperidin-3-yl)-3-oxoisoindolin-5-yl)piperidin-4-yl)-5-(4-((7-ethyl-6-oxo-5,6-dihydro-1,5-naphthyridin-3-yl)methyl)piperazin-1-yl)picolinamide]	28 nM	94.6%		

Reference: patent US20250222116A1, “PARP-1 DEGRADATION AGENT AND USE THEREOF” (XIZANG HAISCO PHARMACEUTICAL CO., LTD., priority 2021, published 2025)
